Source: patent publication US11666594B2, “Antibody-drug conjugates comprising a cyclic dinucleotide” (TAKEDA PHARMACEUTICAL COMPANY LIMITED, priority 2016, dated 2023)
Counter-ions that a name gives are not always drawn.

biological target: WT STING (Homo sapiens (Human), UniProt Q86WV6, H232R); assay: Reporter gene assay (2): ISRE NanoLuc reporter in 293T cells, with digitonin, WT STING; type: cell-based; conditions: HEK-293T; 30 μM; digitonin; 2′,3′-cGAMP (30 μM) = 100%; read-out: activity level against WT STING of test compound (30 μM)
Description: The culture solution was removed, and the test compound diluted with assay buffer (50 mM HEPES pH 7.0, 100 mM KCl, 3 mM MgCl2, 85 mM Sucrose, 0.1 mM DTT, 0.2% BSA, 1 mM ATP, 0.1 mM GTP, 10 μg/ml Digitonin) was added thereto by 15 μL/well. […] Luminescence signals derived from firefly luciferase and NanoLuc Luciferase were each measured using EnVision (PerkinElmer, Waltham, Mass., US) according to Nano-Glo Dual-Luciferase Reporter Assay System (Promega, Fitchburg, Wis., US) protocol. The ratio of the count of NanoLuc Luciferase divided by the count of firefly luciferase was used for culculation.

Sequence of WT STING (Q86WV6 whole entry H232R): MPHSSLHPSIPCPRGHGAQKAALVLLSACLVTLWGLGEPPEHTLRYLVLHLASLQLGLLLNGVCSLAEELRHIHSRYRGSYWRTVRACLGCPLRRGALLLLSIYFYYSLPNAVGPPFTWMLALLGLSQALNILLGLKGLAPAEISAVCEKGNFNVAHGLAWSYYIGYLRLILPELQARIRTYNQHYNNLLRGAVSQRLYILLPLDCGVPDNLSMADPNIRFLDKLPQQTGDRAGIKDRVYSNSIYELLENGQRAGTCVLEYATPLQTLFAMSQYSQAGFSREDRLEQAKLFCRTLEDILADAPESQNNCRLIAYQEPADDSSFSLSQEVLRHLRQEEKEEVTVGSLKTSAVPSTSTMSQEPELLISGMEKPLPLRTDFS

activation at 30 µM [%]	Structure (SMILES)
97	Nc1ncnc2c1ncn2[C@@H]1O[C@@H]2COP(=O)(O)O[C@@H]3[C@H](O)[C@@H](COP(=O)(O)O[C@H]2[C@H]1F)O[C@H]3n1cc(F)c2c(=O)[nH]cnc21 [Example 1, 7-((5R,7R,8R,12aR,14R,15R,15aR,16R)-14-(6-amino-9H-purin-9-yl)-15-fluoro-2,10,16-trihydroxy-2,10-dioxidooctahydro-12H-5,8-methanofuro[3,2-1][1,3,6,9,11,2,10]pentaoxadiphosphacyclotetradecin-7-yl)-5-fluoro-3,7-dihydro-4H-pyrrolo[2,3-d]pyrimidin-4-one di-triethylamine salt]
99	Nc1ncnc2c1ncn2[C@@H]1O[C@@H]2COP(=O)(O)O[C@@H]3[C@H](O)[C@@H](COP(=O)(O)O[C@H]2[C@H]1F)O[C@H]3n1cc(F)c2c(=O)[nH]cnc21 [Example 1a, 7-((5R,7R,8R,12aR,14R,15R,15aR,16R)-14-(6-amino-9H-purin-9-yl)-15-fluoro-2,10,16-trihydroxy-2,10-dioxidooctahydro-12H-5,8-methanofuro[3,2-1][1,3,6,9,11,2,10]pentaoxadiphosphacyclotetradecin-7-yl)-5-fluoro-3,7-dihydro-4H-pyrrolo[2,3-d]pyrimidin-4-one disodium salt]
114	Nc1ncnc2c1ncn2[C@@H]1O[C@@]23CO[C@@H]1[C@@H]2OP(=O)(O)OC[C@H]1O[C@@H](n2cc(F)c4c(=O)[nH]cnc42)[C@H](OP(=O)(O)OC3)[C@@H]1O [Example 16, 7-((5R,7R,8R,12aR,14R,15R,15aS,18R)-14-(6-amino-9H-purin-9-yl)-2,10,18-trihydroxy-2,10-dioxidohexahydro-14H-15,12a-(epoxymethano)-5,8-methanofuro[3,2-1][1,3,6,9,11,2,10]pentaoxadiphosphacyclotetradecin-7(12H)-yl)-5-fluoro-3,7-dihydro-4H-pyrrolo[2,3-d]pyrimidin-4-one di-triethylamine salt]

Structure (SMILES)	activation at 30 µM [%]
Nc1ncnc2c1ncn2[C@@H]1O[C@@H]2COP(=O)(O)O[C@@H]3[C@H](O)[C@@H](COP(=O)(S)O[C@H]2[C@H]1F)O[C@H]3n1cc(F)c2c(=O)[nH]cnc21 (stereo partly drawn) [Example 3, 7-((2R,5R,7R,8R,12aR,14R,15R,15aR,16R)-14-(6-amino-9H-purin-9-yl)-15-fluoro-10,16-dihydroxy-2,10-dioxido-2-sulfanyloctahydro-12H-5,8-methanofuro[3,2-1][1,3,6,9,11,2,10]pentaoxadiphosphacyclotetradecin-7-yl)-5-fluoro-3,7-dihydro-4H-pyrrolo[2,3-d]pyrimidin-4-one 1.7 triethylamine salt]	97

same assay, conditions: HEK-293T; read-out: activity level against WT STING of test compound (30 μM)

Structure (SMILES)	activation at 30 µM [%]
Nc1nc2c(ncn2[C@@H]2O[C@@H]3COP(=O)(O)O[C@H]4[C@@H](O)[C@H](c5cnn6c(N)ncnc56)O[C@@H]4COP(=O)(O)O[C@@H]2[C@@H]3O)c(=O)[nH]1 [Example 13, 2-amino-9-((5R,7R,8R,12aR,14S,15S,15aS,16R)-14-(4-aminopyrazolo[1,5-a][1,3,5]triazin-8-yl)-2,10,15,16-tetrahydroxy-2,10-dioxidooctahydro-12H-5,8-methanofuro[3,2-1][1,3,6,9,11,2,10]pentaoxadiphosphacyclotetradecin-7-yl)-1,9-dihydro-6H-purin-6-one di-triethylamine salt]	99
Nc1ncnc2c1ncn2[C@@H]1O[C@@]23CO[C@@H]1[C@@H]2OP(=O)(S)OC[C@H]1O[C@@H](n2cc(F)c4c(=O)[nH]cnc42)[C@H](OP(=O)(O)OC3)[C@@H]1O (stereo partly drawn) [Example 17, 7-((5R,7R,8R,12aR,14R,15R,15aS,18R)-14-(6-amino-9H-purin-9-yl)-10,18-dihydroxy-2,10-dioxido-2-sulfanylhexahydro-14H-15,12a-(epoxymethano)-5,8-methanofuro[3,2-1][1,3,6,9,11,2,10]pentaoxadiphosphacyclotetradecin-7(12H)-yl)-5-fluoro-3,7-dihydro-4H-pyrrolo[2,3-d]pyrimidin-4-one di-trimethylamine salt]	110
